Assays:
Test in all cases: Competitive isoTOP-ABPP in situ (fragment-treated cells)
Assay type in all cases: cell-based
[1] = biological target: T1, cysteines in MDA-MB-231 and Ramos cells (Homo sapiens, UniProt Q96HE7)
T1 sequence (Q96HE7 24-468): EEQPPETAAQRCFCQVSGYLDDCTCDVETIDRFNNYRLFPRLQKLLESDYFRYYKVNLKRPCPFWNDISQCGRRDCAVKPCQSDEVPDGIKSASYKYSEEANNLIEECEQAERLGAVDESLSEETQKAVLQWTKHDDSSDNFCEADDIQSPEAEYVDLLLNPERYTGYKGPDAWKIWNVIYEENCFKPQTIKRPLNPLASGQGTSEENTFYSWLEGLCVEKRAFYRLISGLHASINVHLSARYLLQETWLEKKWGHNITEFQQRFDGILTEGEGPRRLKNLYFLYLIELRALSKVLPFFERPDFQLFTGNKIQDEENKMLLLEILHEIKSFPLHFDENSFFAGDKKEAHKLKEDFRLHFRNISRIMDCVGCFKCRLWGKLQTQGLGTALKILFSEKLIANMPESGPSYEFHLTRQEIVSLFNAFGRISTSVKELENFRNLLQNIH

[2] = biological target: T2, cysteines in MDA-MB-231 and Ramos cells (Homo sapiens, UniProt P42224)
T2 sequence (P42224 1-750): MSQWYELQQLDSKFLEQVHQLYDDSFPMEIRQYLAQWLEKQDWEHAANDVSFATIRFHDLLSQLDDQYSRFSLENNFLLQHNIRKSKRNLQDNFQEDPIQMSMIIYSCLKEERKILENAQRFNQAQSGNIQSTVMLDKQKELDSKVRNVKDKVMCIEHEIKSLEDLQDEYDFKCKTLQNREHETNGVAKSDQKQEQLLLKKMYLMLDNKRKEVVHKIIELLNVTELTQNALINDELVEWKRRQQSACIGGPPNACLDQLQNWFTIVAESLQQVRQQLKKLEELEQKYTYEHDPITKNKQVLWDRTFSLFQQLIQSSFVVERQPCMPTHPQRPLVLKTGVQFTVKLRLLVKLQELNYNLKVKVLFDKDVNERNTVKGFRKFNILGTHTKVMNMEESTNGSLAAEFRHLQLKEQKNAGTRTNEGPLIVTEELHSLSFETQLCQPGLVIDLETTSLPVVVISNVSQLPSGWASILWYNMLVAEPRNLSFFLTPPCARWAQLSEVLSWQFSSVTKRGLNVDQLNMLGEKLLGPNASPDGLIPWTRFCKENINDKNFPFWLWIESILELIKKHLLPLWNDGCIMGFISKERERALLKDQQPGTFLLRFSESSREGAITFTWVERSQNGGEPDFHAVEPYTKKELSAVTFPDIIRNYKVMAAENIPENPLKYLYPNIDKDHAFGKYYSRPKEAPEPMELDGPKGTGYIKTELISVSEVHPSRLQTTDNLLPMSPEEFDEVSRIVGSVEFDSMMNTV

[3] = biological target: cysteines in MDA-MB-231 and Ramos cells (Homo sapiens, UniProt Q9BUH6)
Chain of cysteines in MDA-MB-231 and Ramos cells (Homo sapiens, UniProt Q9BUH6) (Q9BUH6 whole entry): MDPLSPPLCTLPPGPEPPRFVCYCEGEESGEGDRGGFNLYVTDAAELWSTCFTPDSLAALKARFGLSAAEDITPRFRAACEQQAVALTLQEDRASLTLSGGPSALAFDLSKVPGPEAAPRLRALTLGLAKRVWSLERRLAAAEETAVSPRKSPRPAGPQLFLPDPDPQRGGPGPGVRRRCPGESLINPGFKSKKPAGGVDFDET

[4] = biological target: T3, cysteines in MDA-MB-231 and Ramos cells (Homo sapiens, UniProt Q9Y3A3)
T3 sequence (Q9Y3A3 1-225): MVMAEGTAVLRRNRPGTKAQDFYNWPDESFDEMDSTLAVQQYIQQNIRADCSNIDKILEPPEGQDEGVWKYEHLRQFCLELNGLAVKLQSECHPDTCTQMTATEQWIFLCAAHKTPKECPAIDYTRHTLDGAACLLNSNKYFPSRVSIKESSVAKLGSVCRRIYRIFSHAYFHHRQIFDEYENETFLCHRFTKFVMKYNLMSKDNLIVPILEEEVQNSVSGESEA

[5] = biological target: cysteines in MDA-MB-231 and Ramos cells (Homo sapiens, UniProt Q9NYL2)
Chain of cysteines in MDA-MB-231 and Ramos cells (Homo sapiens, UniProt Q9NYL2) (Q9NYL2 whole entry): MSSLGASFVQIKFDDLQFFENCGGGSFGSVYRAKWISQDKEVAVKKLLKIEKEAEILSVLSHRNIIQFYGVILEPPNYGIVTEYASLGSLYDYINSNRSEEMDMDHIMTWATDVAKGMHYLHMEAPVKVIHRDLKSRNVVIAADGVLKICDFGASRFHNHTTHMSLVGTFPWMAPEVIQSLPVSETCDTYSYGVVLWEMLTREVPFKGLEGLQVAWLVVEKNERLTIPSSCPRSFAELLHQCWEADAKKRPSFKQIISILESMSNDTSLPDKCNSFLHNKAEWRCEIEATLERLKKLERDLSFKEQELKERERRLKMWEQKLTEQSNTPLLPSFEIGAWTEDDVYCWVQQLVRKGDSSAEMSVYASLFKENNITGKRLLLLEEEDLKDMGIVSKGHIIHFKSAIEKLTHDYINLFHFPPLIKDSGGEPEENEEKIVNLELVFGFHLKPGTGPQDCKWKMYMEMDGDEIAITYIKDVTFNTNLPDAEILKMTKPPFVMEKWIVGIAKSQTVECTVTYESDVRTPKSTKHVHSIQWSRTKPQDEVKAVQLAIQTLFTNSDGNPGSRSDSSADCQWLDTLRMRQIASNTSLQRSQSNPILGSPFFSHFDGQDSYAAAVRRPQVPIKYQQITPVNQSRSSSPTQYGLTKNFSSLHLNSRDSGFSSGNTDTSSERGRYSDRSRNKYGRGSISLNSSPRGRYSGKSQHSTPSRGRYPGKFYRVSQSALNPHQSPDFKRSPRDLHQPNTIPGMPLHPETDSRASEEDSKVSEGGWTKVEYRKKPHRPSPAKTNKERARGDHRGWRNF

[6] = biological target: T4, cysteines in MDA-MB-231 and Ramos cells (Homo sapiens, UniProt O95336)
T4 sequence (O95336 1-258): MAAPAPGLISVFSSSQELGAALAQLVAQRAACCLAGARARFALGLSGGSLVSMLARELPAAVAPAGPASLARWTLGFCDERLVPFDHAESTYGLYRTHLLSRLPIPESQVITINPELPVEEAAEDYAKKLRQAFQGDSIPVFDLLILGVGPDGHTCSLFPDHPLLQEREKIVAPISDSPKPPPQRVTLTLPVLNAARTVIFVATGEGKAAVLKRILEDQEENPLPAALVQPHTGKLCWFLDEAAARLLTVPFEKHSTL

[7] = biological target: T5, cysteines in MDA-MB-231 and Ramos cells (Homo sapiens, UniProt Q9NQR4)
T5 sequence (Q9NQR4 1-276): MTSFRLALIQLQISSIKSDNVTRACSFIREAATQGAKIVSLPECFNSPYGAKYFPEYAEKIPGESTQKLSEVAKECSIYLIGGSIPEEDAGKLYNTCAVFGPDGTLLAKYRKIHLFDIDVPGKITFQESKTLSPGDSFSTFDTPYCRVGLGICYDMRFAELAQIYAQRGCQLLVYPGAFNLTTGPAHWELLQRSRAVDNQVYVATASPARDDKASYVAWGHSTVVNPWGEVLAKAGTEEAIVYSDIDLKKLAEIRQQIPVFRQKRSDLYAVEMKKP

[8] = biological target: cysteines in MDA-MB-231 and Ramos cells (Homo sapiens, UniProt P38606)
Chain of cysteines in MDA-MB-231 and Ramos cells (Homo sapiens, UniProt P38606) (P38606 whole entry): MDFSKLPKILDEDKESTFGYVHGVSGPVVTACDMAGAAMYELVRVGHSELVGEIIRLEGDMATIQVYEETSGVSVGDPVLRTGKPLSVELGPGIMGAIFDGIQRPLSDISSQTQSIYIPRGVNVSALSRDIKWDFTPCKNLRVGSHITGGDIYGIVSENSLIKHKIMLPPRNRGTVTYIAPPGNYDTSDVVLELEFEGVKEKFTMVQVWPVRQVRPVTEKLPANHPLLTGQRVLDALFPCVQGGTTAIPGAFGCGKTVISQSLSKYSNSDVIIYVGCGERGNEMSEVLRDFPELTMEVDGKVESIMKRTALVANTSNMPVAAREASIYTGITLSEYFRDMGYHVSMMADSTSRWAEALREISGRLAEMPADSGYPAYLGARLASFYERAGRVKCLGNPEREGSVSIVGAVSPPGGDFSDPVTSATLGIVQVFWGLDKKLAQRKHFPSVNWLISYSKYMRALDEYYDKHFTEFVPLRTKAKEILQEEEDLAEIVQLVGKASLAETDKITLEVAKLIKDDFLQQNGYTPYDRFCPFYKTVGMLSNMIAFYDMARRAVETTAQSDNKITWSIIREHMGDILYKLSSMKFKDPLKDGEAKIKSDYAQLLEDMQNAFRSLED

[9] = biological target: T6, cysteines in MDA-MB-231 and Ramos cells (Homo sapiens, UniProt Q96CM8)
T6 sequence (Q96CM8 42-615): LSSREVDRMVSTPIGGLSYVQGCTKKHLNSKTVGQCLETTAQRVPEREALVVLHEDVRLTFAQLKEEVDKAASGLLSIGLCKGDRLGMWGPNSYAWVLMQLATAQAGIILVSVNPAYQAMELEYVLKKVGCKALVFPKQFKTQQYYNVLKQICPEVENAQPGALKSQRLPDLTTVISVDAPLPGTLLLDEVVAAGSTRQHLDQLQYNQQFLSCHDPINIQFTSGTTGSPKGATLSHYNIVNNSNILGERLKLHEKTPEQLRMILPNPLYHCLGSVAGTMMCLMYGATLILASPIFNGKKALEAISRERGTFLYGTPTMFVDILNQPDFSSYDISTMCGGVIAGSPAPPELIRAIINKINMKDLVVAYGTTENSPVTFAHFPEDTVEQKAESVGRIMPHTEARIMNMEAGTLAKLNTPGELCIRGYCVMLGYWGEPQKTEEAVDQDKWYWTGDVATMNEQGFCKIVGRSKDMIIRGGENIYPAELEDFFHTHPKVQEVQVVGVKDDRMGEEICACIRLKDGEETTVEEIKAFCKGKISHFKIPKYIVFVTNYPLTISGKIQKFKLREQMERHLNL

SMILES: COc1ccccc1OCCNC(=O)CCl [compound 28]
- isoTOP-ABPP ratio Q96HE7_C241 ([1]; 200 μM, insitu, 231): 1.1
- isoTOP-ABPP ratio P42224_C492 ([2]; 200 μM, insitu, 231): 0.8
- isoTOP-ABPP ratio Q9BUH6_C180 ([3]; 200 μM, insitu, 231): 1.1

SMILES: Cc1ccc(C=C(C#N)C(=O)NCCN2CCOCC2)cc1 [compound 41]
- isoTOP-ABPP ratio Q9Y3A3_C134 ([4]; 200 μM, insitu, 231): 0.9
- isoTOP-ABPP ratio Q9NYL2_C22 ([5]; 200 μM, insitu, 231): 0.6
- isoTOP-ABPP ratio O95336_C32 ([6]; 200 μM, insitu, 231): 0.6
- isoTOP-ABPP ratio Q96HE7_C37 ([1]; 200 μM, insitu, 231): 0.4
- isoTOP-ABPP ratio Q96HE7_C241 ([1]; 200 μM, insitu, 231): 0.7
- isoTOP-ABPP ratio Q9NQR4_C153 ([7]; 200 μM, insitu, 231): 0.7
- isoTOP-ABPP ratio P38606_C138 ([8]; 200 μM, insitu, 231): 0.8
- isoTOP-ABPP ratio Q96CM8_C64 ([9]; 200 μM, insitu, 231): 0.8
- isoTOP-ABPP ratio P42224_C492 ([2]; 200 μM, insitu, 231): 0.6
- isoTOP-ABPP ratio Q9BUH6_C180 ([3]; 200 μM, insitu, 231): 0.6

SMILES: O=C(CCl)N1CCC(Cc2ccccc2)CC1 [compound 9]
- isoTOP-ABPP reactivity Q9Y3A3_C134 MOB4 ([4]; 200 μM, insitu, 231): 20.0
- isoTOP-ABPP reactivity Q9NYL2_C22 MUTK Mitogen-activated protein kinase MLTK ([5]; 200 μM, insitu, 231): 10.3
- isoTOP-ABPP reactivity O95336_C32 PGLS ([6]; 200 μM, insitu, 231): 6.7
- isoTOP-ABPP reactivity Q96HE7_C37 ERO1L ([1]; 200 μM, insitu, 231): 20.0
- isoTOP-ABPP reactivity Q9NQR4_C153 N1T2 ([7]; 200 μM, insitu, 231): 20.0
- isoTOP-ABPP reactivity P38606_C138 ATP6V1A ([8]; 200 μM, insitu, 231): 20.0
- isoTOP-ABPP reactivity P42224_C492 STAT1 ([2]; 200 μM, insitu, 231): 3.1
- isoTOP-ABPP reactivity Q9BUH6_C180 C9orf142 ([3]; 200 μM, insitu, 231): 2.8

SMILES: COc1ccc(C2CC(c3cccs3)=NN2C(=O)CCl)cc1 (centres unmarked) [compound 4]
- isoTOP-ABPP reactivity Q9Y3A3_C134 MOB4 ([4]; 100 μM in situ 231): 1.2
- isoTOP-ABPP reactivity Q9NYL2_C22 MUTK Mitogen-activated protein kinase MLTK ([5]; 100 μM in situ 231): 20.0
- isoTOP-ABPP reactivity Q96HE7_C37 ERO1L ([1]; 100 μM in situ 231): 5.4
- isoTOP-ABPP reactivity Q96HE7_C241 ERO1L ([1]; 100 μM in situ 231): 3.0
- isoTOP-ABPP reactivity Q9NQR4_C153 N1T2 ([7]; 100 μM in situ 231): 0.7
- isoTOP-ABPP reactivity P38606_C138 ATP6V1A ([8]; 100 μM in situ 231): 20.0
- isoTOP-ABPP reactivity Q96CM8_C64 ACSF2 ([9]; 100 μM in situ 231): 20.0
- isoTOP-ABPP reactivity Q9BUH6_C180 C9orf142 ([3]; 100 μM in situ 231): 1.2

SMILES: O=C(CCl)NC12CC3CC(CC(C3)C1)C2 [compound 21]
- isoTOP-ABPP ratio O95336_C32 ([6]; 200 μM, insitu, 231): 0.9
- isoTOP-ABPP ratio Q96HE7_C241 ([1]; 200 μM, insitu, 231): 1.6
- isoTOP-ABPP ratio Q9NQR4_C153 ([7]; 200 μM, insitu, 231): 0.9
- isoTOP-ABPP ratio P38606_C138 ([8]; 200 μM, insitu, 231): 20.0
- isoTOP-ABPP ratio Q96CM8_C64 ([9]; 200 μM, insitu, 231): 2.0
- isoTOP-ABPP ratio P42224_C492 ([2]; 200 μM, insitu, 231): 0.7

SMILES: O=C(CCl)Nc1cccc2ncccc12 [compound 51]
- isoTOP-ABPP ratio Q96HE7_C241 ([1]; 200 μM, insitu, 231): 1.7
- isoTOP-ABPP ratio Q9NQR4_C153 ([7]; 200 μM, insitu, 231): 0.6
- isoTOP-ABPP ratio P38606_C138 ([8]; 200 μM, insitu, 231): 10.6
- isoTOP-ABPP ratio P42224_C492 ([2]; 200 μM, insitu, 231): 2.4

SMILES: Cn1cc(S(=O)(=O)N2CCOCC2)cc1C(=O)NC(=O)CCl [compound 11]
- isoTOP-ABPP ratio Q9Y3A3_C134 ([4]; 100 μM in situ 231): 1.8
- isoTOP-ABPP ratio Q9NYL2_C22 ([5]; 100 μM in situ 231): 0.7
- isoTOP-ABPP ratio O95336_C32 ([6]; 100 μM in situ 231): 0.9
- isoTOP-ABPP ratio Q96HE7_C241 ([1]; 100 μM in situ 231): 1.8
- isoTOP-ABPP ratio Q9NQR4_C153 ([7]; 100 μM in situ 231): 3.7
- isoTOP-ABPP ratio P38606_C138 ([8]; 100 μM in situ 231): 9.2
- isoTOP-ABPP ratio Q96CM8_C64 ([9]; 100 μM in situ 231): 1.5
- isoTOP-ABPP ratio P42224_C492 ([2]; 100 μM in situ 231): 0.7

Source: patent publication US10670605B2, “Cysteine reactive probes and uses thereof” (The Scripps Research Institute, priority 2015, dated 2020)
